Measured values from patent US20260022142A1, “MACROCYCLIC IMMUNOMODULATORS” (Bristol-Myers Squibb Company, priority 2022, published 2026).
Bridge positions count the residues as written; N and C are the ends. Square brackets hold non-standard residues; d marks the D form. Peptide text beside a SMILES is read from it. * marks the point of attachment. ξ: configuration not given here. Phe(3-CF3) = N[C@@H](Cc1cccc(C(F)(F)F)c1)C(=O)O; Phe(4-COOH) = N[C@@H](Cc1ccc(C(=O)O)cc1)C(=O)O; Bip = N[C@@H](Cc1ccc(-c2ccccc2)cc1)C(=O)O; Phe(3-Me) = Cc1cccc(C[C@H](N)C(=O)O)c1; Pro(4R-NH2) = N[C@H]1CN[C@H](C(=O)O)C1; NH(CH2)12COOH = O=C(O)CCCCCCCCCCCCN*; Val(3-OH) = CC(C)(O)[C@H](N)C(=O)O; hArg = N=C(N)NCCCC[C@H](N)C(=O)O; 4Pal = N[C@@H](Cc1ccncc1)C(=O)O; Cha = N[C@@H](CC1CCCCC1)C(=O)O; Cit = NC(=O)NCCC[C@H](N)C(=O)O; Gly(cPr) = N[C@H](C(=O)O)C1CC1; Thr(3ξ) = CC(O)[C@H](N)C(=O)O; Carboxymethyl = O=C(O)C*; Nle = CCCC[C@H](N)C(=O)O; Orn = NCCC[C@H](N)C(=O)O; Aun = NCCCCCCCCCCC(=O)O; Dab = NCC[C@H](N)C(=O)O; Dap = NC[C@H](N)C(=O)O; AEEA = NCCOCCOCC(=O)O

Target: T1, PD-1/PD-L1 interaction (PE-labeled human PD-L1-Ig binding to Jurkat cell line over-expressing human PD-1) (Homo sapiens, UniProt Q15116)
T1 construct: expressed in transfected cells; host or cells: Jurkat
Experiment: Jurkat-PD-1 Cell Binding High-Content Screening Assay (CBA)
Type: cell-based
Conditions: Jurkat cell line over-expressing human PD-1; PE-labeled PD-L1-Ig 20 nM final; read-out: Jurkat hPD1-PDL1 IC50
In short: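 Jurkat cells stably over-expressing human PD-1 were seeded in DMEM with 10% fetal calf serum and pre-incubated with compound for 2 h at 37° C. PE-labeled human PD-L1-Ig was then added at 20 nM final for 1 hour, after which cells were fixed with paraformaldehyde, Hoechst-stained and imaged by high-content microscopy.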

T1 sequence (Q15116 25-288): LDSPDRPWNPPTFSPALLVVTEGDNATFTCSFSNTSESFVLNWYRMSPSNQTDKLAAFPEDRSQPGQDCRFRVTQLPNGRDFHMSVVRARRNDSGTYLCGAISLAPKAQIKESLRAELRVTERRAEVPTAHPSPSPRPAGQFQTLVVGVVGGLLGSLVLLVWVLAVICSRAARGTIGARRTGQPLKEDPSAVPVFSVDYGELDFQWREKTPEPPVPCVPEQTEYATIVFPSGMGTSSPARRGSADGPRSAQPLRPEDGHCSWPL

IC50	SMILES
18.2 nM	CCCC[C@@H]1NC(=O)CSC[C@@H](C(=O)N[C@@H](CCN)C(=O)NCCOCCOCC(=O)NCCOCCOCC(=O)NCCCCCCCCCCCCC(=O)O)NC(=O)[C@H](CO)NC(=O)[C@H](C(C)(C)O)NC(=O)[C@H](CC2CCCCC2)NC(=O)[C@H](CCN)NC(=O)[C@@H](CC(C)C)NC(=O)[C@H](CCCN)NC(=O)[C@H](Cc2ccc(C(=O)O)cc2)NC(=O)[C@H](Cc2ccc(-c3ccccc3)cc2)NC(=O)[C@H](Cc2ccc(C(=O)O)cc2)NC(=O)[C@H](Cc2cccc(C(F)(F)F)c2)NC(=O)[C@H](CC(=O)O)NC(=O)[C@H](Cc2ccc(OCC(=O)O)cc2)NC1=O [Compound 2909] ({CH2CO}-[Nle]Y(Carboxymethyl)D[Phe(3-CF3)][Phe(4-COOH)][Bip][Phe(4-COOH)][Orn][dL][Dab][Cha][Val(3-OH)]SC[Dab][AEEA][AEEA]-{NH(CH2)12COOH}; thioether N-14)
15.4 nM	Cc1cccc(C[C@@H]2NC(=O)[C@H](CC(=O)O)NC(=O)[C@H](Cc3ccc(OCC(=O)O)cc3)NC(=O)[C@H](CCCNC(=N)N)NC(=O)CSC[C@@H](C(=O)N[C@@H](CCCCN)C(=O)NCCCCCCCCCCC(=O)O)NC(=O)[C@H](CN)NC(=O)[C@H](C(C)C)NC(=O)[C@H](CC3CCCCC3)NC(=O)[C@H](CCN)NC(=O)[C@@H](CC(C)C)NC(=O)[C@H](CCN)NC(=O)[C@H](CCCNC(N)=O)NC(=O)[C@H](Cc3ccc(-c4ccccc4)cc3)NC(=O)[C@H](C(C)C)NC2=O)c1 [Compound 2802] ({CH2CO}-RY(Carboxymethyl)D[Phe(3-Me)]V[Bip][Cit][Dab][dL][Dab][Cha]V[Dap]CK[Aun]-OH; thioether N-14)
51.4 nM	CC(C)C[C@@H]1NC(=O)[C@H](Cc2c[nH]c3ccccc23)NC(=O)[C@H](CC(=O)O)NC(=O)[C@H](Cc2ccc(OCC(=O)O)cc2)NC(=O)[C@H](CN)NC(=O)CSC[C@@H](C(=O)N[C@@H](CCN)C(=O)NCCCCCCCCCCC(=O)O)NC(=O)[C@H](CCCN)NC(=O)[C@H](C(C)O)NC(=O)[C@H](CC2CCCCC2)NC(=O)[C@H](CCN)NC(=O)[C@@H](CC(C)C)NC(=O)[C@H](CCCN)NC(=O)[C@H](Cc2ccc(O)cc2)NC(=O)[C@H](Cc2ccc(-c3ccccc3)cc2)NC1=O (stereo partly drawn) [Compound 3682] ({CH2CO}-[Dap]Y(Carboxymethyl)DWL[Bip]Y[Orn][dL][Dab][Cha][Thr(3ξ)][Orn]C[Dab][Aun]-OH; thioether N-14)
700 nM	CC(C)C[C@H]1NC(=O)[C@H](CCCN)NC(=O)[C@H](C(C)C)NC(=O)[C@H](Cc2ccc(-c3ccccc3)cc2)NC(=O)[C@H](C(C)C)NC(=O)[C@H](Cc2c[nH]c3ccccc23)NC(=O)[C@H](CC(=O)O)NC(=O)[C@H](Cc2ccc(OCC(=O)O)cc2)NC(=O)[C@H](CCCNC(=N)N)NC(=O)CSC[C@@H](C(=O)NCC(=O)NCCOCCOCC(=O)N[C@@H](CCCN)C(=O)NCCCCCCCCCCC(=O)O)NC(=O)[C@H](CCN)NC(=O)[C@H](C(C)C)NC(=O)[C@H](CC2CCCCC2)NC(=O)[C@@H]2C[C@@H](N)CN2C1=O [Compound 3242] ({CH2CO}-RY(Carboxymethyl)DWV[Bip]V[Orn][dL][Pro(4R-NH2)][Cha]V[Dab]CG[AEEA][Orn][Aun]-OH; thioether N-14)
26.9 nM	CC(C)C[C@H]1NC(=O)[C@H](CCCN)NC(=O)[C@H](C(C)C)NC(=O)[C@H](Cc2ccc(-c3ccccc3)cc2)NC(=O)[C@H](C(C)C)NC(=O)[C@H](Cc2c[nH]c3ccccc23)NC(=O)[C@H](CC(=O)O)NC(=O)[C@H](Cc2ccc(OCC(=O)O)cc2)NC(=O)[C@H](CCCCNC(=N)N)NC(=O)CSC[C@@H](C(=O)N[C@@H](CCCNC(N)=O)C(=O)NCCOCCOCC(=O)NCCCCCCCCCCC(=O)O)NC(=O)[C@H](CCCN)NC(=O)[C@H](C(C)C)NC(=O)[C@H](CC2CCCCC2)NC(=O)[C@H](CC(N)=O)NC1=O [Compound 3218] ({CH2CO}-[hArg]Y(Carboxymethyl)DWV[Bip]V[Orn][dL]N[Cha]V[Orn]C[Cit][AEEA][Aun]-OH; thioether N-14)
105 nM	CC(C)C[C@@H]1NC(=O)[C@H](Cc2c[nH]c3ccccc23)NC(=O)[C@H](CC(=O)O)NC(=O)[C@H](Cc2ccc(OCC(=O)O)cc2)NC(=O)[C@H](C(C)O)NC(=O)CSC[C@@H](C(=O)N[C@@H](CCN)C(=O)NCCCCCCCCCCC(=O)O)NC(=O)[C@H](CN)NC(=O)[C@H](C(C)O)NC(=O)[C@H](CC2CCCCC2)NC(=O)[C@H](CCN)NC(=O)[C@@H](CC(C)C)NC(=O)[C@H](CCCN)NC(=O)[C@H](Cc2ccc(O)cc2)NC(=O)[C@H](Cc2ccc(-c3ccccc3)cc2)NC1=O (stereo partly drawn) [Compound 3671] ({CH2CO}-[Thr(3ξ)]Y(Carboxymethyl)DWL[Bip]Y[Orn][dL][Dab][Cha][Thr(3ξ)][Dap]C[Dab][Aun]-OH; thioether N-14)
23.2 nM	CC(C)C[C@H]1NC(=O)[C@H](CCCN)NC(=O)[C@H](C(C)C)NC(=O)[C@H](Cc2ccc(-c3ccccc3)cc2)NC(=O)[C@H](C(C)C)NC(=O)[C@H](Cc2c[nH]c3ccccc23)NC(=O)[C@H](CC(=O)O)NC(=O)[C@H](Cc2ccc(OCC(=O)O)cc2)NC(=O)[C@H](Cc2ccncc2)NC(=O)CSC[C@@H](C(=O)NCCOCCOCC(=O)NCCCCCCCCCCC(=O)O)NC(=O)[C@H](C(C)O)NC(=O)[C@H](C(C)C)NC(=O)[C@H](CC2CCCCC2)NC(=O)[C@H](CCN)NC1=O (stereo partly drawn) [Compound 3048] ({CH2CO}-[4Pal]Y(Carboxymethyl)DWV[Bip]V[Orn][dL][Dab][Cha]V[Thr(3ξ)]C[AEEA][Aun]-OH; thioether N-14)
10.7 nM	CC(C)C[C@H]1NC(=O)[C@H](CCCN)NC(=O)[C@H](C(C)C)NC(=O)[C@H](Cc2ccc(-c3ccccc3)cc2)NC(=O)[C@H](C(C)C)NC(=O)[C@H](Cc2c[nH]c3ccccc23)NC(=O)[C@H](CC(=O)O)NC(=O)[C@H](Cc2ccc(OCC(=O)O)cc2)NC(=O)[C@H](CCCCNC(=N)N)NC(=O)CSC[C@@H](C(=O)NCC(=O)NCCOCCOCC(=O)N[C@@H](CCCN)C(=O)NCCCCCCCCCCC(=O)O)NC(=O)[C@H](CO)NC(=O)[C@H](C(C)C)NC(=O)[C@H](CC2CCCCC2)NC(=O)[C@H](CCN)NC1=O [Compound 3035] ({CH2CO}-[hArg]Y(Carboxymethyl)DWV[Bip]V[Orn][dL][Dab][Cha]VSCG[AEEA][Orn][Aun]-OH; thioether N-14)
18.2 nM	Cc1cccc(C[C@@H]2NC(=O)[C@H](CC(=O)O)NC(=O)[C@H](Cc3ccc(OCC(=O)O)cc3)NC(=O)[C@H](Cc3ccncc3)NC(=O)CSC[C@@H](C(=O)N[C@@H](CCN)C(=O)NCCCCCCCCCCC(=O)O)NC(=O)[C@H](CO)NC(=O)[C@H](C(C)(C)O)NC(=O)[C@H](CC3CCCCC3)NC(=O)[C@H](CCN)NC(=O)[C@@H](CC(C)C)NC(=O)[C@H](CCCN)NC(=O)[C@H](Cc3ccc(OCC(=O)O)cc3)NC(=O)[C@H](Cc3ccc(-c4ccccc4)cc3)NC(=O)[C@H](C3CC3)NC2=O)c1 [Compound 2189] ({CH2CO}-[4Pal]Y(Carboxymethyl)D[Phe(3-Me)][Gly(cPr)][Bip]Y(Carboxymethyl)[Orn][dL][Dab][Cha][Val(3-OH)]SC[Dab][Aun]-OH; thioether N-14)
45.5 nM	CC[C@H](C)[C@@H]1NC(=O)[C@H](Cc2ccc(-c3ccccc3)cc2)NC(=O)[C@H](C(C)C)NC(=O)[C@H](Cc2cccc(C)c2)NC(=O)[C@H](CC(=O)O)NC(=O)[C@H](Cc2ccc(C(=O)O)cc2)NC(=O)[C@H](Cc2ccncc2)NC(=O)CSC[C@@H](C(=O)NCCOCCOCC(=O)N[C@@H](CCCNC(=N)N)C(=O)NCCCCCCCCCCC(=O)O)NC(=O)[C@H]([C@@H](C)O)NC(=O)[C@H](C(C)C)NC(=O)[C@H](CC2CCCCC2)NC(=O)[C@H](CCN)NC(=O)[C@@H](CC(C)C)NC(=O)[C@H](CCCN)NC1=O [Compound 1192] ({CH2CO}-[4Pal][Phe(4-COOH)]D[Phe(3-Me)]V[Bip]I[Orn][dL][Dab][Cha]VTC[AEEA]R[Aun]-OH; thioether N-14)
144 nM	Cc1cccc(C[C@@H]2NC(=O)[C@H](CC(=O)O)NC(=O)[C@H](Cc3ccc(C(=O)O)cc3)NC(=O)[C@H](Cc3ccncc3)NC(=O)CSC[C@@H](C(=O)N[C@@H](CCN)C(=O)NCCCCCCCCCCC(=O)O)NC(=O)[C@H](CO)NC(=O)[C@H](C(C)(C)O)NC(=O)[C@H](CC3CCCCC3)NC(=O)[C@H](CCN)NC(=O)[C@@H](CC(C)C)NC(=O)[C@H](CCCN)NC(=O)[C@H](Cc3ccc(OCC(=O)O)cc3)NC(=O)[C@H](Cc3ccc(-c4ccccc4)cc3)NC(=O)[C@H](Cc3ccc(OCC(=O)O)cc3)NC2=O)c1 [Compound 2177] ({CH2CO}-[4Pal][Phe(4-COOH)]D[Phe(3-Me)]Y(Carboxymethyl)[Bip]Y(Carboxymethyl)[Orn][dL][Dab][Cha][Val(3-OH)]SC[Dab][Aun]-OH; thioether N-14)
11.2 nM	Cc1cccc(C[C@@H]2NC(=O)[C@H](CC(=O)O)NC(=O)[C@H](Cc3ccc(OCC(=O)O)cc3)NC(=O)[C@H](CCCCN)NC(=O)CSC[C@@H](C(=O)N[C@@H](CCN)C(=O)NCCCCCCCCCCC(=O)O)NC(=O)[C@H](CO)NC(=O)[C@H](C(C)(C)O)NC(=O)[C@H](CC3CCCCC3)NC(=O)[C@H](CCN)NC(=O)[C@@H](CC(C)C)NC(=O)[C@H](CCCN)NC(=O)[C@H](Cc3ccc(OCC(=O)O)cc3)NC(=O)[C@H](Cc3ccc(-c4ccccc4)cc3)NC(=O)[C@H](Cc3ccc(OCC(=O)O)cc3)NC2=O)c1 [Compound 2238] ({CH2CO}-KY(Carboxymethyl)D[Phe(3-Me)]Y(Carboxymethyl)[Bip]Y(Carboxymethyl)[Orn][dL][Dab][Cha][Val(3-OH)]SC[Dab][Aun]-OH; thioether N-14)
16.8 nM	Cc1cccc(C[C@@H]2NC(=O)[C@H](CC(=O)O)NC(=O)[C@H](Cc3ccc(OCC(=O)O)cc3)NC(=O)[C@H](CCCNC(=N)N)NC(=O)CSC[C@@H](C(=O)N[C@@H](CCN)C(=O)NCCCCCCCCCCC(=O)O)NC(=O)[C@H]([C@@H](C)O)NC(=O)[C@H](C(C)C)NC(=O)[C@H](CC3CCCCC3)NC(=O)[C@H](CCN)NC(=O)[C@@H](CC(C)C)NC(=O)[C@H](CCCN)NC(=O)[C@H](CCC(N)=O)NC(=O)[C@H](Cc3ccc(-c4ccccc4)cc3)NC(=O)[C@H](Cc3ccc(OCC(=O)O)cc3)NC2=O)c1 [Compound 2854] ({CH2CO}-RY(Carboxymethyl)D[Phe(3-Me)]Y(Carboxymethyl)[Bip]Q[Orn][dL][Dab][Cha]VTC[Dab][Aun]-OH; thioether N-14)
